Experimental findings from ChEMBL document CHEMBL1201862, “PubChem BioAssay data set” (2004) are described below.

Structures are written as SMILES. Activity calls are given as the source filed them.

One test relates to H9c2. In words: cells. The settings on record: Rattus norvegicus, H9c2, Myocardium. Format: functional, cell-based.
Test [1] concerns the target T1, Cytochrome P450 3A4 (Homo sapiens, UniProt P08684). Particulars: Potency.
A further test concerns the target T2, Leucine aminopeptidase (Plasmodium falciparum 3D7, UniProt Q8IL11).
T2 sequence (Q8IL11 whole entry): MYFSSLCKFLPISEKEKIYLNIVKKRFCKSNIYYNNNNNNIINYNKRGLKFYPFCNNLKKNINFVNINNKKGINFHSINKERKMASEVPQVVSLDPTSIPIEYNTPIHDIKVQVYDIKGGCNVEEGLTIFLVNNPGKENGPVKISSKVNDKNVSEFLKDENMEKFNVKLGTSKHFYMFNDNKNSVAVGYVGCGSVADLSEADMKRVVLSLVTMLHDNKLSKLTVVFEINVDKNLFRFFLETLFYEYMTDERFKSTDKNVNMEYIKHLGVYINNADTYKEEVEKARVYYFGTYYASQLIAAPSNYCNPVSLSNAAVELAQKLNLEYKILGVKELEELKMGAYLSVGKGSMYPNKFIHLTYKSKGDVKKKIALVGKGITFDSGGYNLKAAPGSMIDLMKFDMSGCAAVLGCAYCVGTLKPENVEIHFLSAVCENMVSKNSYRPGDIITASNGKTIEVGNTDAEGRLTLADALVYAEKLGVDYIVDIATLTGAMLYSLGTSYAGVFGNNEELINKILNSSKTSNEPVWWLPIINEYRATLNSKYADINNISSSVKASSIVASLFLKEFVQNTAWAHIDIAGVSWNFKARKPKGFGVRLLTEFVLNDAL
In words: P. falciparum M17LAP inhibitors, primary screen, biochemical, fluorogenic H-Leu-NHMec substrate, 1536-well (AID 1619). Format: functional.

Test [2] addresses T3, Short transient receptor potential channel 4 (Mus musculus, UniProt Q9QUQ5).
T3 sequence (Q9QUQ5 whole entry): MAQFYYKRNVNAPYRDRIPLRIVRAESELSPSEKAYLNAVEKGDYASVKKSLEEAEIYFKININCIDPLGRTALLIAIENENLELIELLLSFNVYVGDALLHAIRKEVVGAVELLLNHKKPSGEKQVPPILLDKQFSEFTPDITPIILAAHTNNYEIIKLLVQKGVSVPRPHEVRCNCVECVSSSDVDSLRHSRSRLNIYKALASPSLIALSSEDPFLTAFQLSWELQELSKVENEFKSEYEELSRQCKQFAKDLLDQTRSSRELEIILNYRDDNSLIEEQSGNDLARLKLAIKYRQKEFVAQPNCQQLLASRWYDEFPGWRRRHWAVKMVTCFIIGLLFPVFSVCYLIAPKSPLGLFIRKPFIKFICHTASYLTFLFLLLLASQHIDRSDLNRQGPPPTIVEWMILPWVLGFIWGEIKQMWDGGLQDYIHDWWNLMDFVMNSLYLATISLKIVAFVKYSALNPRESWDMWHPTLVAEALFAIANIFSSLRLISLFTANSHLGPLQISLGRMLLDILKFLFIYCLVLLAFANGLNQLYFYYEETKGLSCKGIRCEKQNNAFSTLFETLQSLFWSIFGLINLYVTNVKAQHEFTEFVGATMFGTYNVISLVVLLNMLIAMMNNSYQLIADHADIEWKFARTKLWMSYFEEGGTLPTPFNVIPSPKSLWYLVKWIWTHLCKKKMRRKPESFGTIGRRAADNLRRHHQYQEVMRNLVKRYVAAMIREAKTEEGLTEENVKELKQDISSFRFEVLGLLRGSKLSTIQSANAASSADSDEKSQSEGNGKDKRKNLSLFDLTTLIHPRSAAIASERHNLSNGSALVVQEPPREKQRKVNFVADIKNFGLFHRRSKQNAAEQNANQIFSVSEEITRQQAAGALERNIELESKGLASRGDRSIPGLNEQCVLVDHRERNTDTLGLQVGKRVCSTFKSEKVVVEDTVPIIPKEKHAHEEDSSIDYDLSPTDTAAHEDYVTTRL
The experiment in a line: mouse TRPC4 channel inhibitors, dose response, cell-based, HEK293 TRPC4/mu-opioid, Fluo-4 calcium (AID 434942).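 Note: potency of inhibitors blocking the TRPC4 calcium response.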 Format: functional.

The target of test [3] is T1, Cytochrome P450 3A4.
The target of test [4] is T4, Rac GTPase-activating protein 1 (Homo sapiens, UniProt Q9H0H5).
T4 sequence (Q9H0H5 whole entry): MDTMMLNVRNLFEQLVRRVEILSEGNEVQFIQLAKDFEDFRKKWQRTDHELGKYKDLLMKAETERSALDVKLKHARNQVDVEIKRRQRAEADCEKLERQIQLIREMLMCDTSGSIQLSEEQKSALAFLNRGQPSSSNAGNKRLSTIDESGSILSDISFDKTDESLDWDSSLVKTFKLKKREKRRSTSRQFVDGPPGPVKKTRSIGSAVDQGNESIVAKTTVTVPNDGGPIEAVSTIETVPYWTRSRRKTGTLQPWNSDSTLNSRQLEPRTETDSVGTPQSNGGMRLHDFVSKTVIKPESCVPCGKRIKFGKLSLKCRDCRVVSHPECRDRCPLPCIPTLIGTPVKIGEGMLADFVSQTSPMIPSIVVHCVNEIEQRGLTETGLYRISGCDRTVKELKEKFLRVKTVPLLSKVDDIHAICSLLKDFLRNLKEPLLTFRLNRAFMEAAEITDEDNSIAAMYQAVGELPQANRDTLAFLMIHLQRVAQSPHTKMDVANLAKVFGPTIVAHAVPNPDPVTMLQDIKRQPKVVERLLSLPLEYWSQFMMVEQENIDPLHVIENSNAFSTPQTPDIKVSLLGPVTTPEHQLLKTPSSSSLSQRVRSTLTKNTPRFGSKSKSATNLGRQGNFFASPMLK
In words: MgcRacGAP GTPase-activating activity inhibitors, confirmation, biochemical, ADP Hunter fluorescence, primary and confirmatory (AID 624330). Format: functional.

For test [5], the system named is Streptococcus sp. 'group A'. The experiment in a line: growth inhibition of control SK(-) GAS strain, dose response, counter-screen for streptokinase expression inhibitor project, luminescence, kanamycin, BacTiterGlo, confirmation (AID 1900). Format: functional, organism-based. In general terms: The purpose of a counterscreen is to sort out artefacts and off-target activity.

The test system of the next test is Streptococcus. The experiment in a line: Group A Streptococcus viability loss, dose response, counter-screen for streptokinase expression inhibitor project, luminescence, BacTiterGlo (AID 1915).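 Note: potency for reduction of bacterial viability or growth.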 The format is functional, organism-based.
For the next test, the target named is T5, Streptokinase A (Streptococcus pyogenes serotype M1, UniProt P10520).
T5 sequence (P10520 whole entry): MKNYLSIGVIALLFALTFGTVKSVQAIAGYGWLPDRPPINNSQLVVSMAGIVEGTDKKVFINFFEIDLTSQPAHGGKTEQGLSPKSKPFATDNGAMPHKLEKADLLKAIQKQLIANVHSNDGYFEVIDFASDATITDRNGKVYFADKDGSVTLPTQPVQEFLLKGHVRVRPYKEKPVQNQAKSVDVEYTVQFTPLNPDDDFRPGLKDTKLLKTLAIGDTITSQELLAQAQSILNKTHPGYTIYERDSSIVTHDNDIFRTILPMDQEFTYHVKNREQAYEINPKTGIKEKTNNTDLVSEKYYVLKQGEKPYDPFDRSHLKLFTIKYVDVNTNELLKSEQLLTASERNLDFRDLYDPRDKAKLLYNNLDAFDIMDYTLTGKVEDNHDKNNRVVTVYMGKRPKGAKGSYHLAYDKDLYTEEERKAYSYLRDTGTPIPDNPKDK
In words: S. pyogenes streptokinase expression inhibitors, potency, dose response, plasminogen activation absorbance, OD405 (AID 1914).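 Note: secreted streptokinase activity via plasminogen activation per viability signal from cell pellet.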 The format is functional, Streptococcus pyogenes M1 GAS.

Test [6] can be described thus: Luminescence Cell-Based Dose Response HTS to Identify Inhibitors of 5'UTR Stem-Loop Driven Prion Protein mRNA Translation in H4 Neuroglioblastoma Cells. [Related pubchem assays: 1827 (Project Summary), 1813 (Primary HTS)]. Format: functional.
A short description of test [7]: inhibitors of SNCA 5'UTR-driven reporter translation, confirmation, H4 neuroglioma cells, luminescence (AID 1988). The format is functional, cell-based.
The nature of test [8]: inhibitors of firefly luciferase expression or activity, dose response, H4 neuroglioma cells, luminescence (AID 1990). Format: functional, cell-based.

T1 sequence (P08684 whole entry): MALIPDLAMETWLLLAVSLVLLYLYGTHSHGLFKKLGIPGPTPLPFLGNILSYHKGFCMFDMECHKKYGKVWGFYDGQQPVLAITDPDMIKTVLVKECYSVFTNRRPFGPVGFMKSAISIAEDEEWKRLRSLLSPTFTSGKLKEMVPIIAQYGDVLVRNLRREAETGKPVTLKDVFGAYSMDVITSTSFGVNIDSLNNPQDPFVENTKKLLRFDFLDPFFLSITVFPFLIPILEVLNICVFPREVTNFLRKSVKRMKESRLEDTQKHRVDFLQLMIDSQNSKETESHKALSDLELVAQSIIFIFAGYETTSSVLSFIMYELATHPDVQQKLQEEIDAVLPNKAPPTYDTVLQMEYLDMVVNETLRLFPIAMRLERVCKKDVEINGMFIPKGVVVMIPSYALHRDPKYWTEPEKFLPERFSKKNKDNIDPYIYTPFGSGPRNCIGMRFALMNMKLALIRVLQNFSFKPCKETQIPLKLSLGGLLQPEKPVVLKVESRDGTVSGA

A word on the IC50: it is the concentration at which inhibition is half-maximal. Regarding `Cc1sc2nc(SCC(=O)N3CCCC3)nc(O)c2c1C`, in the test with H9c2, the IC50 was > 79 µM (inactive).

Turning to `NS(=O)(=O)c1cccc(NC(=O)COC(=O)Cc2nnc(O)c3ccccc23)c1`, the IC50 with H9c2 is > 79 µM (inactive).

Usually AC50 stands for the midpoint of the concentration-response curve, whichever way the signal moves. `COc1ccc2c(=O)cc(-c3ccccc3)oc2c1O`: the AC50 at Cytochrome P450 3A4 [1] is 39.8 µM (inconclusive).

Take `COc1ccc(Cc2nnc(NS(=O)(=O)Cc3ccccc3)s2)cc1`: the IC50 on Leucine aminopeptidase was 6.34 µM (active).

As a reminder, the EC50 is the midpoint of the concentration-response curve. `COc1ccc(NC(=O)c2cccc(N3C(=O)C4CC=C(C)CC4C3=O)c2)c(OC)c1` (stereo not given): in test [2], the EC50 is 0.0173 µM (active).

In the case of `COCCN(CCOC)c1nc(C)nc2c1nc(-c1ccccc1)n2CCCN(C)C`, on Cytochrome P450 3A4 [1], the AC50 is 7.94 µM (inconclusive).

For `Cc1ccc(C=NNc2nc3c(=O)n(C)c(=O)n(C)c3[nH]2)cc1`, in the test on H9c2, the IC50 was > 79 µM (inactive).

Consider `O=C(Nc1ccccc1)N1CCN2C(=O)c3ccccc3C12c1ccccc1` (stereo not given), for which the concentration for a half-maximal effect (EC50) in test [2] is 2.11 µM (active).

As for `CC1=NNC(=O)C1CCC(=O)N/N=C\c1ccccc1[N+](=O)[O-]` (stereo not given), the AC50 on Cytochrome P450 3A4 [3] is 17.8 µM (inconclusive). Moreover, at Leucine aminopeptidase, the IC50 was 3.14 µM (active).

Consider `Cc1ccc(NC(=O)CCc2nc(O)c3ccccc3n2)cc1S(=O)(=O)N1CCOCC1`, for which the IC50 with H9c2 was > 79 µM (inactive).

As for `O=c1[nH]c2ccc(S(=O)(=O)N3CCN(Cc4ccccc4)CC3)cc2[nH]c1=O`, the IC50 at Leucine aminopeptidase is 2.62 µM (active).

Consider `CCCCN(CC)c1c([N+](=O)[O-])cc(C(F)(F)F)cc1[N+](=O)[O-]` [BENFLURALIN], for which, at Cytochrome P450 3A4 [1], the AC50 is 15.8 µM (inconclusive).

As for `Cc1cc(=O)oc2c(O)c(O)ccc12` [4-METHYLDAPHNETIN], the IC50 in test [4] was 25.9 µM (active). Besides, at Cytochrome P450 3A4 [1], the AC50 was 25.1 µM (inconclusive).

Take `O=S(=O)(Nc1nc2ccccc2nc1NCCN1CCOCC1)c1cccc(Cl)c1`: at Leucine aminopeptidase, the IC50 is 25.9 µM (active).

As for `O=C(NC(=S)NNC(=O)c1ccc(Cl)cc1Cl)c1cccnc1`, on Leucine aminopeptidase, the concentration for half-maximal inhibition (IC50) is 49.6 µM (active). In addition, the EC50 in [5] is 5.27 µM (active); in the test on Streptococcus it was 96.5 µM (active); at Streptokinase A, > 150 µM (not active).

As to `Cc1nc2c3cc(Cl)ccc3n(CCN3CCCCC3)c2s1`, in test [2], the EC50 is 4.22 µM (active).

For the compound `CCOC(=O)C1CCN(c2cc3c(cc2NC(=O)c2ccccc2)n(C)c(=O)n3C)CC1`, the IC50 in the test on H9c2 was > 79 µM (inactive).

Take `CCOC(=O)c1c(NC(=O)C2C3C=CC(C3)C2C(=O)O)sc2c1CC(C)CC2` (stereo not given): the figures for the EC50 in test [6], in [7] and in test [8] were 60.9 µM (active), 48.1 µM (active) and > 120 µM (not active), respectively. At Leucine aminopeptidase, the half-inhibitory concentration (IC50) was 10.1 µM (active).

`CC1(C)C(O)CC(O)[C@]2(C)C1CC(O)[C@]1(C)C2CC[C@@]2(C)C(c3ccoc3)CC3OC312` (stereo not given in full): at Cytochrome P450 3A4 [1], the AC50 is 3.16 µM (inconclusive).

On to `N#C/C(=C\c1cn(-c2ccccc2)nc1-c1cccnc1)c1nnc2n1CCCCC2`, for which the IC50 in the test on H9c2 is 15.8 µM (active).

For `COc1ccc(Br)cc1CNC(C)c1ccccc1` (stereo not given), the EC50 in test [2] was 5.31 µM (active).

Turning to `O=C(O[C@@H]1Cc2c(O)cc(O)cc2OC1c1ccc(O)c(O)c1)c1cc(O)c(O)c(O)c1` (stereo not given in full), the AC50 on Cytochrome P450 3A4 [1] is 25.1 µM (inconclusive).
